Test results taken from patent US8461328B2, “Tricyclic heterocyclic compounds, compositions and methods of use thereof” (Genentech, Inc., priority 2010, dated 2013).

Legend:
Format in all cases: biochemical
TYK2 = biological target: T1, TYK2 (Homo sapiens, UniProt P29597); test: TYK2 inhibition (Table 4)
T1 construct: made in house; host or cells: SF9 insect cells (baculovirus)
T1 sequence (P29597 873-1187): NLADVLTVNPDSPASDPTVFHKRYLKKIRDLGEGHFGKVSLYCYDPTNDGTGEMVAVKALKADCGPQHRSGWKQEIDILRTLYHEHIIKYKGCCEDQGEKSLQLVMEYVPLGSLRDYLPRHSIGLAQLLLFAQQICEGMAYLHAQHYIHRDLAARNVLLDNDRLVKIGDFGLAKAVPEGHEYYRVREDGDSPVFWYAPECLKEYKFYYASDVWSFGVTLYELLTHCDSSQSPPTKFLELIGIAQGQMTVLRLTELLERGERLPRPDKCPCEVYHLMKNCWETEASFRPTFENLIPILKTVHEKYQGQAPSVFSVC

JAK3 = biological target: T2, JAK3 (Homo sapiens, UniProt P52333); test: JAK3 inhibition (Table 4); conditions: read-out: JAK3 Ki
T2 construct: made in house; host or cells: SF9 insect cells (baculovirus)
T2 sequence (P52333 783-1124): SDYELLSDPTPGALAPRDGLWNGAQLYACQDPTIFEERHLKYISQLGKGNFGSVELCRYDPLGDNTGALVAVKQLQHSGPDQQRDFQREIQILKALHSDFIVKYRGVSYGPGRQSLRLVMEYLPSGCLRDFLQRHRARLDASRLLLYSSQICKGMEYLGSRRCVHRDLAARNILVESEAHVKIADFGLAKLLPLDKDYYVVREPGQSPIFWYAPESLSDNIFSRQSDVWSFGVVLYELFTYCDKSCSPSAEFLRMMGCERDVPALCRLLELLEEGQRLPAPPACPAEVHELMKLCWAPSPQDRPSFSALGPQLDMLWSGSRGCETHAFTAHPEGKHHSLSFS

JAK2 = biological target: T3, JAK2 (Homo sapiens, UniProt O60674); test: JAK2 inhibition (Table 4); conditions: read-out: JAK2 Ki
T3 construct: made in house; host or cells: SF9 insect cells (baculovirus)
T3 sequence (O60674 812-1132): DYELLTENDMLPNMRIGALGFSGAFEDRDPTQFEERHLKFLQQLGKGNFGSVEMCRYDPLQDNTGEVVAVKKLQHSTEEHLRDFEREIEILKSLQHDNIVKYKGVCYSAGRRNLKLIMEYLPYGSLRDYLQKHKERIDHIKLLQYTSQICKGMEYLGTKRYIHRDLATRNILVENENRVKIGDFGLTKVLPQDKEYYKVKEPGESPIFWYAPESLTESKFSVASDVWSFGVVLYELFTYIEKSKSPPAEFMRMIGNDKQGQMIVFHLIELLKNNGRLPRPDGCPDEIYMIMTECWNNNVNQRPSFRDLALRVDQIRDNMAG

JAK1 = biological target: T4, JAK1 (Homo sapiens, UniProt P23458); test: JAK1 inhibition (Table 4); conditions: read-out: JAK1 Ki
T4 construct: made in house; host or cells: SF9 insect cells (baculovirus)
T4 sequence (P23458 852-1154): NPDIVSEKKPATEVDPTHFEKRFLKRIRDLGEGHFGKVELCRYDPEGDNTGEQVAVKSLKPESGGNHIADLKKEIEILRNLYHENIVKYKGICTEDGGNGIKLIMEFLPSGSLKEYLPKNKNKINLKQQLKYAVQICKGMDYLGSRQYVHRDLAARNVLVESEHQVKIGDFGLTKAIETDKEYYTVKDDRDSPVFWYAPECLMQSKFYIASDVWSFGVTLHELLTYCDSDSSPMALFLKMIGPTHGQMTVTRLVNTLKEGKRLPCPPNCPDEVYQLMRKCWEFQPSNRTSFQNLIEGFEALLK

Row | Compound | Ki (TYK2) [nM] | Ki (JAK3) [nM] | Ki (JAK2) [nM] | Ki (JAK1) [nM]
1 | C[C@@H](O)c1nc2cnc3[nH]ccc3c2n1C1CCC(CC#N)CC1 (stereo partly drawn) [Example 1001, {4-[2-((R)-1-Hydroxy-ethyl)-6H-1,3,5,6-tetraaza-as-indacen-1-yl]-cyclohexyl}-acetonitrile] | 2.22 | 16.7 | 13 | 1.15
2 | C[C@@H](O)c1nc2cnc3[nH]ccc3c2n1C1CCC(NCC(F)F)CC1 (stereo partly drawn) [Example 1002, (R)-1-{1-[4-(2,2-Difluoro-ethylamino)-cyclohexyl]-1,6-dihydro-1,3,5,6-tetraaza-as-indacen-2-yl}-ethanol] | 4.76 | 111 | 22.1 | 0.97
3 | C[C@@H](O)c1nc2cnc3[nH]ccc3c2n1[C@H]1CC[C@@H](NCC(F)(F)F)C1 [Example 1004, (R)-1-{1-[(1S,3R)-3-(2,2,2-Trifluoro-ethylamino)-cyclopentyl]-1,6-dihydro-1,3,5,6-tetraaza-as-indacen-2-yl}-ethanol] | 17 | 44.4 | 63 | 1.69
4 | C[C@@H](O)c1nc2cnc3[nH]ccc3c2n1[C@H]1CC[C@@H](NCC(F)F)C1 [Example 1005, (R)-1-{1-[(1S,3R)-3-(2,2-Difluoro-ethylamino)-cyclopentyl]-1,6-dihydro-1,3,5,6-tetraaza-as-indacen-2-yl}-ethanol] | 18.1 | 26.3 | 86.1 | 2.36
5 | N#CCCC1CCC(n2c(C(O)CO)nc3cnc4[nH]ccc4c32)CC1 (stereo not drawn) [Example 1006, 3-{4-[2-(1,2-Dihydroxy-ethyl)-6H-1,3,5,6-tetraaza-as-indacen-1-yl]-cyclohexyl}-propionitrile] | 3.52 | 11.3 | 4.49 | 0.8
6 | C[C@@H](O)c1nc2cnc3[nH]ccc3c2n1[C@H]1CC[C@H](NCC(F)(F)F)C1 [Example 1008, (R)-1-{1-[(1S,3S)-3-(2,2,2-Trifluoro-ethylamino)-cyclopentyl]-1,6-dihydro-1,3,5,6-tetraaza-as-indacen-2-yl}-ethanol] | 7.93 | 98 | 23.9 | 1.72
7 | C[C@@H](O)c1nc2cnc3[nH]ccc3c2n1C1CCC(NCC(F)(F)F)CC1 (stereo partly drawn) [Example 1009, (R)-1-{1-[4-(2,2,2-Trifluoro-ethylamino)-cyclohexyl]-1,6-dihydro-1,3,5,6-tetraaza-as-indacen-2-yl}-ethanol] | 75.5 | 44 | 116 | 59.5
8 | (R)-1-{1-[1-(3,5-Dimethyl-1H-pyrazol-4-ylmethyl)-piperidin-4-yl]-1,6-dihydro-1,3,5,6-tetraaza-as-indacen-2-yl}-ethanol [Example 904] | 2650 | 1040 | 1340 | 211
9 | N-tert-Butyl-2-[1-(tetrahydro-pyran-3-yl)-1,6-dihydro-1,3,5,6-tetraaza-as-indacen-2-yl]-acetamide [Example 964] | 487 | 164 | 274 | 78.9
10 | [3-(6H-1,3,5,6-Tetraaza-as-indacen-1-yl)-cyclopentyl]-carbamic acid 2,2,2-trifluoro-ethyl ester [Example 733] | 37.8 | 5.88 | 4.83 | 0.77

Next, values leading:

Row | Ki (TYK2) [nM] | Ki (JAK3) [nM] | Ki (JAK2) [nM] | Ki (JAK1) [nM] | Compound
11 | 9.23 | 50.8 | 3.85 | 2.01 | OC1(C2CC2)CCC(n2cnc3cnc4[nH]ccc4c32)CC1 (stereo not drawn) [Example 996, Cis-1-Cyclopropyl-4-(6H-1,3,5,6-tetraaza-as-indacen-1-yl)-cyclohexanol]
12 | 38.2 | 129 | 63.5 | 5.16 | C[C@@H](O)c1nc2cnc3[nH]ccc3c2n1C1CCC(n2ccnn2)CC1 (stereo partly drawn) [Example 1003, (R)-1-[1-(4-[1,2,3]Triazol-1-yl-cyclohexyl)-1,6-dihydro-1,3,5,6-tetraaza-as-indacen-2-yl]-ethanol]
13 | 2.2 | 0.33 | 1.66 | 1.12 | C[C@@H](O)c1nc2cnc3[nH]cc(Br)c3c2n1C1CCC(CC#N)CC1 (stereo partly drawn) [Example 1010, {4-[8-Bromo-2-((R)-1-hydroxy-ethyl)-6H-1,3,5,6-tetraaza-as-indacen-1-yl]-cyclohexyl}-acetonitrile]
14 | 81.7 | 79.3 | 133 | 18 | C[C@@H](O)c1nc2cnc3[nH]ccc3c2n1[C@H]1COCCC1(F)F [Example 1011, (R)-1-[1-((S)-4,4-Difluoro-tetrahydro-pyran-3-yl)-1,6-dihydro-1,3,5,6-tetraaza-as-indacen-2-yl]-ethanol]
15 | 45.2 | 75.1 | 103 | 9.43 | C[C@@H](O)c1nc2cnc3[nH]ccc3c2n1[C@@H]1COCCC1(F)F [Example 1012, (R)-1-[1-((R)-4,4-Difluoro-tetrahydro-pyran-3-yl)-1,6-dihydro-1,3,5,6-tetraaza-as-indacen-2-yl]-ethanol]
16 | 11.3 | 28.9 | 11.1 | 2.15 | COCCN1CC[C@H](n2c([C@@H](C)O)nc3cnc4[nH]ccc4c32)C(F)(F)C1 [Example 1013, (R)-1-{1-[(S)-3,3-Difluoro-1-(2-methoxy-ethyl)-piperidin-4-yl]-1,6-dihydro-1,3,5,6-tetraaza-as-indacen-2-yl}-ethanol]
17 | 45.5 | 4.65 | 18.6 | 2.53 | COCCN1CC[C@@H](n2c([C@@H](C)O)nc3cnc4[nH]ccc4c32)C(F)(F)C1 [Example 1014, (R)-1-{1-[(R)-3,3-Difluoro-1-(2-methoxy-ethyl)-piperidin-4-yl]-1,6-dihydro-1,3,5,6-tetraaza-as-indacen-2-yl}-ethanol]
18 | 1.87 | 10.5 | 7.11 | 1.13 | (1-Cyclohexyl-1,6-dihydro-1,2,3,5,6-tetraaza-as-indacen-2-yl)-methanol-d11 [Example 674]
